Laboratory results from patent US20210238162A1, “CHEMICAL COMPOUNDS” (GlaxoSmithKline Intellectual Property Development Limited, priority 2015, published 2021).
Where two headings read alike, the source gives them in different places.

Target: T1, haematopoietic prostaglandin D synthase (H-PGDS) (Homo sapiens, UniProt O60760)
T1 construct: Full length human H-PGDS cDNA (Invitrogen Ultimate ORF IOH13026) was amplified by PCR; made in house; host or cells: E. coli BL21 (DE3*), vector pET22b+
Test: H-PGDS RapidFire High Throughput Mass Spectrometry Assay
Format: biochemical
Procedure, shortened: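 PGH2 (~10 μM burst) generated in situ from arachidonic acid by FLAG-tagged human COX-2 (Sf9-expressed), then converted to PGD2 by full-length human His-tagged H-PGDS from E. coli. PGD2 and PGF2α (substrate surrogate) quantified by RapidFire SPE-triple quadrupole MS; percent conversion calculated.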

[1] = H-PGDS RapidFire MS assay, mean pIC50, read-out: Potency Range (mean pIC50) (converted)
[2] = in at least one experimental run, read-out: H-PGDS pIC50 value (converted)

T1 sequence (O60760 whole entry): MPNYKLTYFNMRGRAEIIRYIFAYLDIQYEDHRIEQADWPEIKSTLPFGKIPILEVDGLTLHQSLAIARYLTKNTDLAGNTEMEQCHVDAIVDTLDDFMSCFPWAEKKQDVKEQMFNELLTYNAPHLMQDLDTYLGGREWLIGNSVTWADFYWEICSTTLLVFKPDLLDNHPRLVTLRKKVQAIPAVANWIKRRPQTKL

SMILES | IC50 [1] [nM] | IC50 [2] [nM]
C[C@]1(O)C[C@@H](NC(=O)c2cnc3cc(C4CCC4)c(Cl)cc3c2)C1 [Example 180, 6-Chloro-7-cyclobutyl-N-((1s,3s)-3-hydroxy-3-methylcyclobutyl)quinoline-3-carboxamide] | 10 to 79.4 | 
O=C(N[C@H]1CCNC1=O)c1cnc2cc(C3CCC3)c(Cl)cc2c1 [Example 181, (S)-6-Chloro-7-cyclobutyl-N-(2-oxopyrrolidin-3-yl)quinoline-3-carboxamide] | < 10 | 
CC1CCN1c1cc2ncc(C(=O)N[C@H]3CCNC3=O)cc2cc1Cl (stereo partly drawn) [Example 182, 6-Chloro-7-(2-methylazetidin-1-yl)-N—((S)-2-oxopyrrolidin-3-yl)quinoline-3-carboxamide] | 10 to 79.4 | 
CC1CN(c2cc3ncc(C(=O)N[C@H]4CC[C@H](C(C)(C)O)CC4)cc3cc2F)C1 [Example 183, 6-Fluoro-N-(trans-4-(2-hydroxypropan-2-yl)cyclohexyl)-7-(3-methylazetidin-1-yl)quinoline-3-carboxamide] | 10 to 79.4 | 
CC(C)(O)[C@H]1CC[C@H](NC(=O)c2cnc3cc(SC(F)F)c(F)cc3c2)CC1 [Example 184, 7-((Difluoromethyl)thio)-6-fluoro-N-(trans-4-(2-hydroxypropan-2-yl)cyclohexyl)quinoline-3-carboxamide] | 10 to 79.4 | 
CC(C)(O)[C@H]1CC[C@H](NC(=O)c2cnc3cc([S+]([O-])C(F)F)c(F)cc3c2)CC1 (stereo partly drawn) [Example 185, 7-((Difluoromethyl)sulfinyl)-6-fluoro-N-(trans-4-(2-hydroxypropan-2-yl)cyclohexyl)quinoline-3-carboxamide] | 10 to 79.4 | 
Cc1ccc2cc(C(=O)N[C@H]3CC[C@H](C(C)(C)O)CC3)cnc2c1 [Example 186, N-(trans-4-(2-Hydroxypropan-2-yl)cyclohexyl)-7-methylquinoline-3-carboxamide] | 100 to 1000 | 
C[C@H]1CCN1c1cc2ncc(C(=O)N[C@H]3CC[C@H](C(C)(C)O)CC3)cc2cc1Cl [Example 187, 6-Chloro-N-(trans-4-(2-hydroxypropan-2-yl)cyclohexyl)-7-((S)-2-methylazetidin-1-yl)quinoline-3-carboxamide] | < 10 | 6.31
C[C@H]1CCN1c1cc2ncc(C(=O)N[C@H]3CCNC3=O)cc2cc1Cl [Example 188, 6-Chloro-7-((S)-2-methylazetidin-1-yl)-N—((S)-2-oxopyrrolidin-3-yl)quinoline-3-carboxamide] | 10 to 79.4 | 
COc1cccc2cc(C(=O)N[C@H]3CC[C@H](C(C)(C)O)CC3)cnc12 [Example 189, N-(trans-4-(2-Hydroxypropan-2-yl)cyclohexyl)-8-methoxyquinoline-3-carboxamide] | 100 to 1000 | 
CC(C)(O)[C@H]1CC[C@H](NC(=O)c2cnc3cc(C(F)(F)F)ccc3c2)CC1 [Example 190, N-(trans-4-(2-Hydroxypropan-2-yl)cyclohexyl)-7-(trifluoromethyl)quinoline-3-carboxamide] | 100 to 1000 | 
CC(C)(O)[C@H]1CC[C@H](NC(=O)c2cnc3cc(Br)ccc3c2)CC1 [Example 191, 7-Bromo-N-(trans-4-(2-hydroxypropan-2-yl)cyclohexyl)quinoline-3-carboxamide] | 10 to 79.4 | 
CC(C)(O)[C@H]1CC[C@H](NC(=O)c2cnc3cc(C4CC4)ccc3c2)CC1 [Example 192, 7-Cyclopropyl-N-(trans-4-(2-hydroxypropan-2-yl)cyclohexyl)quinoline-3-carboxamide] | < 10 | 
CC(C)(O)[C@H]1CC[C@H](NC(=O)c2cnc3cc(F)ccc3c2)CC1 [Example 193, 7-Fluoro-N-(trans-4-(2-hydroxypropan-2-yl)cyclohexyl)quinoline-3-carboxamide] |  | 2000
CC(C)(O)[C@H]1CC[C@H](NC(=O)c2cnc3cc(N4CCC4)ccc3c2)CC1 [Example 194, 7-(Azetidin-1-yl)-N-(trans-4-(2-hydroxypropan-2-yl)cyclohexyl)quinoline-3-carboxamide] | < 10 | 
CC(C)(O)[C@H]1CC[C@H](NC(=O)c2cnc3cc4c(cc3c2)OCO4)CC1 [Example 195, N-(trans-4-(2-Hydroxypropan-2-yl)cyclohexyl)-[1,3]dioxolo[4,5-q]quinoline-7-carboxamide] | 100 to 1000 | 
CN(C)c1ccc2cc(C(=O)N[C@H]3CC[C@H](C(C)(C)O)CC3)cnc2c1 [Example 196, 7-(Dimethylamino)-N-(trans-4-(2-hydroxypropan-2-yl)cyclohexyl)quinoline-3-carboxamide] | < 10 | 
CC(C)(O)[C@H]1CC[C@H](NC(=O)c2cnc3cc(C4CCC4)ccc3c2)CC1 [Example 197, 7-Cyclobutyl-N-(trans-4-(2-hydroxypropan-2-yl)cyclohexyl)quinoline-3-carboxamide] | 10 to 79.4 | 

SMILES | IC50 [1] [nM] | IC50 [2] [nM]
COc1ccc2cc(C(=O)N[C@H]3CC[C@H](C(C)(C)O)CC3)cnc2c1F [Example 202, 8-Fluoro-N-(trans-4-(2-hydroxypropan-2-yl)cyclohexyl)-7-methoxyquinoline-3-carboxamide] | 10 to 79.4 | 
CC(C)(O)[C@H]1CC[C@H](NC(=O)c2cnc3cc(Cl)c(Cl)cc3c2)CC1 [Example 202A, 6,7-Dichloro-N-(trans-4-(2-hydroxypropan-2-VI)cyclohexyl)quinoline-3-carboxamide] | 10 to 79.4 | 
CC(C)(O)[C@H]1CC[C@H](NC(=O)c2cnc3cc(Cl)ccc3c2)CC1 [Example 204, 7-Chloro-N-(trans-4-(2-hydroxypropan-2-yl)cyclohexyl)quinoline-3-carboxamide] | 100 to 1000 | 158
C[C@@H]1CNC(=O)[C@H]1NC(=O)c1cnc2cc(N3CC[C@@H]3C)c(Cl)cc2c1 [Example 205, 6-Chloro-N-((3S,4R)-4-methyl-2-oxopyrrolidin-3-yl)-7-((S)-2-methylazetidin-1-yl)quinoline-3-carboxamide] | < 10 | 
C[C@@H]1CNC(=O)[C@H]1NC(=O)c1cnc2cc(N3CC(F)C3)c(F)cc2c1 [Example 206, 6-Fluoro-7-(3-fluoroazetidin-1-yl)-N-((3S,4R)-4-methyl-2-oxopyrrolidin-3-yl)quinoline-3-carboxamide] | 10 to 79.4 | 
CC1CN(c2cc3ncc(C(=O)N[C@@H]4C(=O)NC[C@H]4C)cc3cc2F)C1 [Example 207, 6-Fluoro-N-((3S,4R)-4-methyl-2-oxopyrrolidin-3-yl)-7-(3-methylazetidin-1-yl)quinoline-3-carboxamide] | 100 to 1000 | 
C[N+](C)([O-])[C@H]1CC[C@H](NC(=O)c2cnc3cc(OC(F)F)c(Cl)cc3c2)CC1 [Example 208, trans-4-(6-Chloro-7-(difluoromethoxy)quinoline-3-carboxamido)-N,N-dimethylcyclohexanamine oxide] | 10 to 79.4 | 
CNc1cc2ncc(C(=O)N[C@H]3CC[C@H](C(C)(C)O)CC3)cc2cc1Cl [Example 209] | < 10 | 
O=C(N[C@H]1CC[C@H](C(=O)N2CCOCC2)CC1)c1cnc2cc(OC(F)F)c(Cl)cc2c1 [Example 210, 6-Chloro-7-(difluoromethoxy)-N-((trans)-4-(morpholine-4-carbonyl)cyclohexyl)quinoline-3-carboxamide] | < 10 | 
CN1CCN(C(=O)[C@H]2CC[C@H](NC(=O)c3cnc4cc(OC(F)F)c(Cl)cc4c3)CC2)CC1 [Example 211, 6-Chloro-7-(difluoromethoxy)-N-((trans)-4-(4-methylpiperazine-1-carbonyl)cyclohexyl)quinoline-3-carboxamide] | 10 to 79.4 | 
CC(C)Nc1cc2ncc(C(=O)N[C@H]3CC[C@H](C(C)(C)O)CC3)cc2cc1Cl [Example 212, 6-Chloro-N-((trans)-4-(2-hydroxypropan-2-yl)cyclohexyl)-7-(isopropylamino)quinoline-3-carboxamide] | < 10 | 
CC(C)(O)[C@H]1CC[C@H](NC(=O)c2cnc3cc(NC4CC4)c(Cl)cc3c2)CC1 [Example 213, 6-Chloro-7-(cyclopropylamino)-N-((trans)-4-(2-hydroxypropan-2-yl)cyclohexyl)quinoline-3-carboxamide] | < 10 | 
O=C(N[C@H]1C[C@H](N2CC(O)(C(F)(F)F)C2)C1)c1cnc2cc(OC(F)F)c(Cl)cc2c1 [Example 214, 6-Chloro-7-(difluoromethoxy)-N-((trans)-3-(3-hydroxy-3-(trifluoromethyl)azetidin-1-yl)cyclobutyl)quinoline-3-carboxamide] | < 10 | 6.31
CC(C)(O)[C@H]1CC[C@H](NC(=O)c2cnc3cc(OC(F)(F)F)c(Cl)cc3c2)CC1 [Example 215B, 6-Chloro-N-((trans)-4-(2-hydroxypropan-2-yl)cyclohexyl)-7-(trifluoromethoxy)quinoline-3-carboxamide] | < 10 | 
CC(C)(O)[C@H]1CC[C@H](NC(=O)c2cnc3c(Cl)c(OC(F)F)ccc3c2)CC1 [Example 216, 8-Chloro-7-(difluoromethoxy)-N-((trans)-4-(2-hydroxypropan-2-yl)cyclohexyl)quinoline-3-carboxamide] | 10 to 79.4 | 
CC(C)(O)[C@H]1CC[C@H](NC(=O)c2cnc3c(Cl)c(OC(F)F)c(Cl)cc3c2)CC1 [Example 217, 6,8-Dichloro-7-(difluoromethoxy)-N-((trans)-4-(2-hydroxypropan-2-yl)cyclohexyl)quinoline-3-carboxamide] | < 10 | 
CCOc1ccc2cc(C(=O)N[C@H]3CC[C@H](C(C)(C)O)CC3)cnc2c1Cl [Example 218, 8-Chloro-7-ethoxy-N-(trans-4-(2-hydroxypropan-2-yl)cyclohexyl)quinoline-3-carboxamide] | 10 to 79.4 | 
CC(C)(O)C(=O)N1CCC(NC(=O)c2cnc3cc(OC(F)F)c(Cl)cc3c2)CC1 [Example 220, 6-Chloro-7-(difluoromethoxy)-N-(1-(2-hydroxy-2-methylpropanoyl)piperidin-4-yl)quinoline-3-carboxamide] | < 10 | 
